Experimental data published in ChEMBL document CHEMBL1671673, “In vitro activity of colistin (polymyxin E) against 3,480 isolates of gram-negative bacilli obtained from patients in Canadian hospitals in the CANWARD study, 2007-2008” (Antimicrob Agents Chemother, 2009).

Assays:
Format in all cases: functional, organism-based
Pseudomonas aeruginosa [1] = assay: Antibacterial activity against Gentamicin-resistant Pseudomonas aeruginosa assessed as susceptible isolates at minimum inhibitory concentration of 16 ug/ml by CLSI broth microdilution method; parameters: scale not given: the % may be the effect or the level left
Pseudomonas aeruginosa [2] = assay: Antibacterial activity against Levofloxacin-resistant Pseudomonas aeruginosa assessed as susceptible isolates at minimum inhibitory concentration of 8 ug/ml by CLSI broth microdilution method; parameters: scale not given: the % may be the effect or the level left
Pseudomonas aeruginosa [3] = assay: Antibacterial activity against Meropenem-resistant Pseudomonas aeruginosa assessed as susceptible isolates at minimum inhibitory concentration of 0.5 ug/ml by CLSI broth microdilution method; parameters: scale not given: the % may be the effect or the level left
Pseudomonas aeruginosa [4] = assay: Antibacterial activity against Meropenem-resistant Pseudomonas aeruginosa assessed as susceptible isolates at minimum inhibitory concentration of 2 ug/ml by CLSI broth microdilution method; parameters: scale not given: the % may be the effect or the level left
Pseudomonas aeruginosa [5] = assay: Antibacterial activity against MDR4 Pseudomonas aeruginosa assessed as susceptible isolates at minimum inhibitory concentration of 0.5 ug/ml by CLSI broth microdilution method; parameters: scale not given: the % may be the effect or the level left
Pseudomonas aeruginosa [6] = assay: Antibacterial activity against MDR4 Pseudomonas aeruginosa assessed as susceptible isolates at minimum inhibitory concentration of 2 ug/ml by CLSI broth microdilution method; parameters: scale not given: the % may be the effect or the level left
Pseudomonas aeruginosa [7] = assay: Antibacterial activity against MDR Pseudomonas aeruginosa assessed as susceptible isolates at minimum inhibitory concentration of 1 ug/ml by CLSI broth microdilution method; parameters: scale not given: the % may be the effect or the level left
Pseudomonas aeruginosa [8] = assay: Antibacterial activity against Pseudomonas aeruginosa assessed as intermediate isolates at 4 ug/ml by CLSI broth microdilution method
Pseudomonas aeruginosa [9] = assay: Antibacterial activity against tazobactam-resistant Pseudomonas aeruginosa assessed as susceptible isolates at minimum inhibitory concentration of 1 ug/ml by CLSI broth microdilution method; parameters: scale not given: the % may be the effect or the level left
Serratia marcescens [10] = assay: Antibacterial activity against Serratia marcescens assessed as susceptible isolates at minimum inhibitory concentration of 2 ug/ml by CLSI broth microdilution method; parameters: scale not given: the % may be the effect or the level left
Serratia marcescens [11] = assay: Antibacterial activity against Serratia marcescens assessed as susceptible isolates at minimum inhibitory concentration of 0.12 ug/ml by CLSI broth microdilution method; parameters: scale not given: the % may be the effect or the level left
Serratia marcescens [12] = assay: Antibacterial activity against Serratia marcescens assessed as susceptible isolates at minimum inhibitory concentration of <=0.06 ug/ml by CLSI broth microdilution method; parameters: scale not given: the % may be the effect or the level left
Proteus mirabilis [13] = assay: Antibacterial activity against Proteus mirabilis assessed as susceptible isolates at minimum inhibitory concentration of 16 ug/ml by CLSI broth microdilution method; parameters: scale not given: the % may be the effect or the level left
Proteus mirabilis [14] = assay: Antibacterial activity against Proteus mirabilis assessed as susceptible isolates at minimum inhibitory concentration of 8 ug/ml by CLSI broth microdilution method; parameters: scale not given: the % may be the effect or the level left
Proteus mirabilis [15] = assay: Antibacterial activity against Proteus mirabilis assessed as susceptible isolates at minimum inhibitory concentration of 4 ug/ml by CLSI broth microdilution method; parameters: scale not given: the % may be the effect or the level left
Enterobacter cloacae [16] = assay: Antibacterial activity against Enterobacter cloacae assessed as susceptible isolates at minimum inhibitory concentration of 1 ug/ml by CLSI broth microdilution method; parameters: scale not given: the % may be the effect or the level left
Enterobacter cloacae [17] = assay: Antibacterial activity against Enterobacter cloacae assessed as susceptible isolates at minimum inhibitory concentration of 0.12 ug/ml by CLSI broth microdilution method; parameters: scale not given: the % may be the effect or the level left
Pseudomonas aeruginosa [18] = assay: Antibacterial activity against Pseudomonas aeruginosa assessed as susceptible isolates at minimum inhibitory concentration of >16 ug/ml by CLSI broth microdilution method; parameters: scale not given: the % may be the effect or the level left
Pseudomonas aeruginosa [19] = assay: Antibacterial activity against Pseudomonas aeruginosa assessed as susceptible isolates at minimum inhibitory concentration of 8 ug/ml by CLSI broth microdilution method; parameters: scale not given: the % may be the effect or the level left
Escherichia coli [20] = assay: Antibacterial activity against ESBL-producing Escherichia coli assessed as susceptible isolates at minimum inhibitory concentration of 16 ug/ml by CLSI broth microdilution method; parameters: scale not given: the % may be the effect or the level left
Escherichia coli [21] = assay: Antibacterial activity against ESBL-producing Escherichia coli assessed as susceptible isolates at minimum inhibitory concentration of 4 ug/ml by CLSI broth microdilution method; parameters: scale not given: the % may be the effect or the level left
Escherichia coli [22] = assay: Antibacterial activity against ESBL-producing Escherichia coli assessed as susceptible isolates at minimum inhibitory concentration of 0.25 ug/ml by CLSI broth microdilution method; parameters: scale not given: the % may be the effect or the level left
Klebsiella oxytoca [23] = assay: Antibacterial activity against Klebsiella oxytoca assessed as susceptible isolates at minimum inhibitory concentration of >16 ug/ml by CLSI broth microdilution method; parameters: scale not given: the % may be the effect or the level left
[24] = system: Stenotrophomonas maltophilia; assay: Antibacterial activity against Stenotrophomonas maltophilia assessed as susceptible isolates at minimum inhibitory concentration of 0.25 ug/ml by CLSI broth microdilution method; parameters: scale not given: the % may be the effect or the level left
Klebsiella aerogenes = assay: Antibacterial activity against Enterobacter aerogenes assessed as susceptible isolates at minimum inhibitory concentration of 2 ug/ml by CLSI broth microdilution method; parameters: scale not given: the % may be the effect or the level left
Acinetobacter baumannii [25] = assay: Antibacterial activity against Acinetobacter baumannii assessed as susceptible isolates at minimum inhibitory concentration of <=0.06 ug/ml by CLSI broth microdilution method; parameters: scale not given: the % may be the effect or the level left
Acinetobacter baumannii [26] = assay: Antibacterial activity against Acinetobacter baumannii assessed as susceptible isolates at minimum inhibitory concentration of 0.25 ug/ml by CLSI broth microdilution method; parameters: scale not given: the % may be the effect or the level left
Acinetobacter baumannii [27] = assay: Antibacterial activity against Acinetobacter baumannii assessed as susceptible isolates at minimum inhibitory concentration of >16 ug/ml by CLSI broth microdilution method; parameters: scale not given: the % may be the effect or the level left
Pseudomonas aeruginosa [28] = assay: Antibacterial activity against Amikacin-resistant Pseudomonas aeruginosa assessed as susceptible isolates at minimum inhibitory concentration of 0.5 ug/ml by CLSI broth microdilution method; parameters: scale not given: the % may be the effect or the level left
Pseudomonas aeruginosa [29] = assay: Antibacterial activity against Amikacin-resistant Pseudomonas aeruginosa assessed as susceptible isolates at minimum inhibitory concentration of 1 ug/ml by CLSI broth microdilution method; parameters: scale not given: the % may be the effect or the level left
Pseudomonas aeruginosa [30] = assay: Antibacterial activity against Amikacin-resistant Pseudomonas aeruginosa assessed as susceptible isolates at minimum inhibitory concentration of 2 ug/ml by CLSI broth microdilution method; parameters: scale not given: the % may be the effect or the level left
Pseudomonas aeruginosa [31] = assay: Antibacterial activity against Amikacin-resistant Pseudomonas aeruginosa assessed as susceptible isolates at minimum inhibitory concentration of 4 ug/ml by CLSI broth microdilution method; parameters: scale not given: the % may be the effect or the level left
Pseudomonas aeruginosa [32] = assay: Antibacterial activity against Amikacin-resistant Pseudomonas aeruginosa assessed as susceptible isolates at minimum inhibitory concentration of 16 ug/ml by CLSI broth microdilution method; parameters: scale not given: the % may be the effect or the level left
Pseudomonas aeruginosa [33] = assay: Antibacterial activity against Cefepime-resistant Pseudomonas aeruginosa assessed as susceptible isolates at minimum inhibitory concentration of 0.5 ug/ml by CLSI broth microdilution method; parameters: scale not given: the % may be the effect or the level left
Pseudomonas aeruginosa [34] = assay: Antibacterial activity against Cefepime-resistant Pseudomonas aeruginosa assessed as susceptible isolates at minimum inhibitory concentration of 2 ug/ml by CLSI broth microdilution method; parameters: scale not given: the % may be the effect or the level left
Pseudomonas aeruginosa [35] = assay: Antibacterial activity against Cefepime-resistant Pseudomonas aeruginosa assessed as susceptible isolates at minimum inhibitory concentration of 4 ug/ml by CLSI broth microdilution method; parameters: scale not given: the % may be the effect or the level left
Pseudomonas aeruginosa [36] = assay: Antibacterial activity against Gentamicin-resistant Pseudomonas aeruginosa assessed as susceptible isolates at minimum inhibitory concentration of 1 ug/ml by CLSI broth microdilution method; parameters: scale not given: the % may be the effect or the level left
Klebsiella oxytoca [37] = assay: Antibacterial activity against Klebsiella oxytoca assessed as susceptible isolates at minimum inhibitory concentration of 0.12 ug/ml by CLSI broth microdilution method; parameters: scale not given: the % may be the effect or the level left
Serratia marcescens [38] = assay: Antibacterial activity against Serratia marcescens assessed as susceptible isolates at minimum inhibitory concentration of >16 ug/ml by CLSI broth microdilution method; parameters: scale not given: the % may be the effect or the level left
Serratia marcescens [39] = assay: Antibacterial activity against Serratia marcescens assessed as susceptible isolates at minimum inhibitory concentration of 8 ug/ml by CLSI broth microdilution method; parameters: scale not given: the % may be the effect or the level left

Sequence: COLISTIN
- Activity (Pseudomonas aeruginosa [1]): 99%
- Activity (Pseudomonas aeruginosa [2]): 98.2%
- Activity (Pseudomonas aeruginosa [3]): 3.5%
- Activity (Pseudomonas aeruginosa [4]): 98.2%
- Activity (Pseudomonas aeruginosa [5]): 7.7%
- Activity (Pseudomonas aeruginosa [6]): 100%
- Activity (Pseudomonas aeruginosa [7]): 38.2%
- Activity (Pseudomonas aeruginosa [8]): 7.3%
- Activity (Pseudomonas aeruginosa [9]): 37.5%
- Activity (Serratia marcescens [10]): 1.9%
- Activity (Serratia marcescens [11]): 0%
- Activity (Serratia marcescens [12]): 0%
- Activity (Proteus mirabilis [13]): 0.8%
- Activity (Proteus mirabilis [14]): 0%
- Activity (Proteus mirabilis [15]): 0%
- Activity (Enterobacter cloacae [16]): 82.3%
- Activity (Enterobacter cloacae [17]): 1.6%
- Activity (Pseudomonas aeruginosa [18]): 100%
- Activity (Pseudomonas aeruginosa [19]): 99.1%
- Activity (Escherichia coli [20]): 99.7%
- Activity (Escherichia coli [21]): 99.5%
- Activity (Escherichia coli [22]): 26.1%
- Activity (Klebsiella oxytoca [23]): 100%
- Activity [24]: 1.2%
- Activity (Klebsiella aerogenes): 97.3%
- Activity (Acinetobacter baumannii [25]): 0%
- Activity (Acinetobacter baumannii [26]): 0%
- Activity (Acinetobacter baumannii [27]): 100%
- Activity (Pseudomonas aeruginosa [28]): 5.3%
- Activity (Pseudomonas aeruginosa [29]): 42.1%
- Activity (Pseudomonas aeruginosa [30]): 97.4%
- Activity (Pseudomonas aeruginosa [31]): 97.4%
- Activity (Pseudomonas aeruginosa [32]): 97.4%
- Activity (Pseudomonas aeruginosa [33]): 6.8%
- Activity (Pseudomonas aeruginosa [34]): 97.3%
- Activity (Pseudomonas aeruginosa [35]): 100%
- Activity (Pseudomonas aeruginosa [36]): 35.6%
- Activity (Klebsiella oxytoca [37]): 0%
- Activity (Serratia marcescens [38]): 100%
- Activity (Serratia marcescens [39]): 1.9%
